Data on 18 compounds can be found in PMC5218887 (Neurochemistry International, 2017).

Assay [1] has as its target T1, human GPR139 (Homo sapiens, UniProt Q6DWJ6).
T1 sequence (Q6DWJ6 1-353): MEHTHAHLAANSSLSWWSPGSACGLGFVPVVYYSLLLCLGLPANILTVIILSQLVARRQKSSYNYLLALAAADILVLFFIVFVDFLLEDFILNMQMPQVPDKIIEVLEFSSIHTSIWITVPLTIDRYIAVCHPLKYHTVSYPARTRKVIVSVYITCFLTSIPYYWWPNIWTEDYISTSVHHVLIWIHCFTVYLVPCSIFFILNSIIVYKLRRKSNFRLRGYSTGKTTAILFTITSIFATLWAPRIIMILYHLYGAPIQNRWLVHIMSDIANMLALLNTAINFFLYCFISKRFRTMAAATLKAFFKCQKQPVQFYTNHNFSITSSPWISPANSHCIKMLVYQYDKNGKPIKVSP
As to the kind of experiment: Fluo-4 Ca2+-assay, agonist testing on CHO-GPR139. The format is cell-based. The following applies: for agonist activity on GPR139: CHO-GPR139, result in words; for relative Emax ± SEM: compared to Emax of cmp1a.

In assay [2] the target is T2, human muscarinic acetylcholine receptor M1 (Homo sapiens, UniProt P11229).
T2 sequence (P11229 1-460): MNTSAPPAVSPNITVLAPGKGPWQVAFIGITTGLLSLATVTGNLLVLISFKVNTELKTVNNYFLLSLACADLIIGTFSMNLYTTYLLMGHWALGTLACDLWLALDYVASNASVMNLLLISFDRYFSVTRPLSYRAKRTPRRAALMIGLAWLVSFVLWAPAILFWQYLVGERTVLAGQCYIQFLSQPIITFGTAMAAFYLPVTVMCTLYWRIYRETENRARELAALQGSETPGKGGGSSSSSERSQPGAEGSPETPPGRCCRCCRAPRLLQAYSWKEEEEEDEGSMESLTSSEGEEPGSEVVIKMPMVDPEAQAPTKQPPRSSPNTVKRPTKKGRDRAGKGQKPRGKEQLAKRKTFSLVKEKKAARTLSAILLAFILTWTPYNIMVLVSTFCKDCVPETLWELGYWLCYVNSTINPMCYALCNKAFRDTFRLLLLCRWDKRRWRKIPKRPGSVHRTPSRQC
In words: Fluo-4 Ca2+-assay on CHO-M1. The format is cell-based. To be noted: CHO-M1, specificity test; data not shown.

In assay [3] the target is T1, human GPR139. As to the kind of experiment: Fluo-4 Ca2+-assay, antagonist testing against EC80. In kind it is cell-based. To be noted: against EC80 (800 nM) of cmp1a; data not shown.
For a further assay, the target named is MC4R (Homo sapiens, UniProt P32245). In words: cAMP accumulation assay. The format is cell-based. To be noted: tested in the highest concentration; normalized to Emax of α-MSH. Background: Cyclic AMP is a second messenger, typically raised through Gs and lowered through Gi signalling.
In assay [4] the test system is GPR139. To be noted: rats; ref Liu et al., 2015; cited from earlier work.
For assay [5], the system named is GPR139. The following applies: read-out: EC50 on GPR139; ref Isberg et al., 2014; cited from earlier work.

“Also recorded” adds a separate entry of the source. Non-standard residues stand in square brackets, D forms with d. Primed or numbered codes have the meaning given here. No end group written: not given here. pS′ = not defined here

Chain of MC4R (P32245 whole entry, species assumed): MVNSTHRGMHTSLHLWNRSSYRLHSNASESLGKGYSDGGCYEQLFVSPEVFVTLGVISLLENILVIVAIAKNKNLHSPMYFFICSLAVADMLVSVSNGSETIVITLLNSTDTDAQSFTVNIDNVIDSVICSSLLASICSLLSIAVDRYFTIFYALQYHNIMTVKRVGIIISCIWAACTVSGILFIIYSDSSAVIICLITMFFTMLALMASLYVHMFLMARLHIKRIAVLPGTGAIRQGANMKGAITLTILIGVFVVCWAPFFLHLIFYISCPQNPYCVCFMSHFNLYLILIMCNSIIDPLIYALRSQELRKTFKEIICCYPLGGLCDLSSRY

Usually Emax stands for the size of the effect at its maximum, as opposed to the concentration needed. Turning to `CSCC[C@H](NC(=O)[C@H](CCCNC(=N)N)NC(=O)[C@H](Cc1ccc(O)cc1)NC(=O)[C@@H]1CCCN1C(=O)CNC(=O)[C@H](CCC(=O)O)NC(=O)[C@H](CC(=O)O)NC(=O)[C@H](CCCCN)NC(=O)[C@H](CCCCN)NC(=O)[C@H](CCC(=O)O)NC(=O)[C@H](C)N)C(=O)N[C@@H](CCC(=O)O)C(=O)N[C@@H](Cc1c[nH]cn1)C(=O)N[C@@H](Cc1ccccc1)C(=O)N[C@@H](CCCNC(=N)N)C(=O)N[C@@H](Cc1c[nH]c2ccccc12)C(=O)NCC(=O)N[C@@H](CO)C(=O)N1CCC[C@H]1C(=O)N1CCC[C@H]1C(=O)N[C@@H](CCCCN)C(=O)N[C@@H](CC(=O)O)C(=O)O` [β-MSH], the “agonist activity on GPR139” value at human GPR139 [1] is reported as “showed agonist activity”. Further, the “fold more potent on GPR139 than L-Trp and L-Phe” value on human GPR139 [1] (compared with L-Trp (EC50 = 220 μM) and L-Phe (EC50 = 320 μM)) is listed as 20–120 fold. The maximal response (Emax) at human GPR139 [1] (read-out: relative Emax ± SEM) amounted to 101 ± 11%. Further, the “activity on the muscarinic acetylcholine M1 receptor” value in assay [2] was “none of these peptides showed any activity”. As to [Arg^8]-vasopressin, in the assay with human GPR139 [1], the “agonist activity on GPR139” value is recorded as “No agonist or antagonist activity”. In addition, the “antagonist activity on GPR139” value in the assay with human GPR139 [3] is given as “No agonist or antagonist activity”. As for Ac-SYSMEHFRW-NH2 [cap-α-MSH1-9], the Emax at 61 µM on human GPR139 [1] (read-out: relative Emax ± SEM) was 53 ± 9%. On MC4R, the “response of α-MSH on MC4R” value is listed as 50%.

As to 26RFa, the “agonist activity on GPR139” value with human GPR139 [1] was “No agonist or antagonist activity”. In addition, in the assay with human GPR139 [3], the “antagonist activity on GPR139” value is “No agonist or antagonist activity”. `C[C@H](NC(=O)CNC(=O)c1cccc(Cl)c1)c1ccccc1` [JNJ-63533054]: the spontaneous locomotion activity entry in the assay with GPR139 [4] was “decreased spontaneous locomotion activity”. With oxytocin, the “agonist activity on GPR139” value with human GPR139 [1] is “No agonist or antagonist activity”. Also, the “antagonist activity on GPR139” value with human GPR139 [3] is “No agonist or antagonist activity”.

In the case of “SY[pSer]SMEHFRWGKPV-NH2 (N-terminal SY[pSer]; C-terminal amide) [α-MSHP-Ser]”, in the assay with human GPR139 [1], the “agonist activity on GPR139” value is recorded as “neither of the two peptides showed any agonist or antagonist activity”. Further, in the assay with human GPR139 [3], the “antagonist activity on GPR139” value is “neither of the two peptides showed any agonist or antagonist activity”. `CSCC[C@H](NC(=O)[C@H](CO)NC(=O)[C@H](Cc1ccc(O)cc1)NC(=O)[C@H](CO)NC(C)=O)C(=O)N[C@@H](CCC(=O)O)C(=O)N[C@@H](Cc1c[nH]cn1)C(=O)N[C@@H](Cc1ccccc1)C(=O)N[C@@H](CCCNC(=N)N)C(=O)N[C@@H](Cc1c[nH]c2ccccc12)C(=O)NCC(N)=O` [cap-α-MSH1-10]: the Emax at 14 µM at human GPR139 [1] (read-out: relative Emax ± SEM) came out at 31 ± 4%. Turning to MEHFRWG [α-MSH4-10], in the assay with human GPR139 [1] (at 101 μM (highest concentration tested, no plateau)), the “relative Emax ± SEM” value is 13 ± 2 (at 101 μM) %. For the compound `N=C(N)NCCC[C@H](NC(=O)[C@H](Cc1ccccc1)NC(=O)[C@@H](N)Cc1c[nH]cn1)C(=O)N[C@@H](Cc1c[nH]c2ccccc12)C(=O)O` [HFRW], the Emax at human GPR139 [1] (read-out: relative Emax ± SEM) was found to be 64 ± 6%.

Regarding thyrotropin releasing hormone [TRH], the “agonist activity on GPR139” value on human GPR139 [1] is listed as “No agonist or antagonist activity”. On human GPR139 [3], the “antagonist activity on GPR139” value is listed as “No agonist or antagonist activity”.

In the case of “cap-α-MSH4-10: α-MSH4-10 (MEHFRWG), N-terminal acetylated and C-terminal amidated”, the “relative Emax ± SEM” value with human GPR139 [1] (at 16 μM (highest concentration tested, no plateau)) was 21 ± 8 (at 16 μM) %. In general, EC50 refers to the concentration needed to bring the measured effect to its halfway point. Take `N[C@@H](Cc1ccccc1)C(=O)O` [L-Phe, L-phenylalanine]: the concentration giving a half-maximal response (EC50) in the assay on GPR139 [5] was 320 µM. With `COc1cc(OC)cc(C(=O)NNC(=O)Nc2cccc3ccccc23)c1` [compound 1a, 2-(3,5-dimethoxybenzoyl)-N-(naphthalen-1-yl)hydrazine-1-carboxamide], the “EC80 on GPR139” value at human GPR139 [1] (concentration used for antagonist testing) is 0.8 µM. On to `N[C@@H](Cc1c[nH]c2ccccc12)C(=O)O` [L-Trp, L-tryptophan], for which the EC50 with GPR139 [5] is 220 µM.

For “γ1-melanocyte stimulating hormone [γ1-MSH]”, the “agonist activity on GPR139” value at human GPR139 [1] is on record as “No agonist or antagonist activity; also recorded: did not show any activity”. For the same compound, the “antagonist activity on GPR139” value at human GPR139 [3] is “No agonist or antagonist activity”. The corresponding values for melanin-concentrating hormone [MCH] are “No agonist or antagonist activity” and “No agonist or antagonist activity”. On the same counts, the results for “SY[pSer]SMEHFRWGKPVGKK (SY[pS′]SMEHFRWGKPVGKK) [ACTH1-16,P-Ser]” are “neither of the two peptides showed any agonist or antagonist activity” and “neither of the two peptides showed any agonist or antagonist activity”.
